PMC11711049 (Cancer Science, 2024)

Tested on: patients with advanced gastric cancer and cholangiocarcinoma
Test: Safety assessments
Format: in vivo, human
[1] = 16 evaluable patients, 140 mg once daily

## CNC(=O)n1ccc2cc(Oc3ccnc(NC(=O)c4ccc(C5CCN(CCO)CC5)cc4)c3)c(OCCOC)cc21 [Tasurgratinib]
140 mg once daily
  SAEs considered related to the study drug: none and No treatment‐related SAEs
  dose reductions attributed to AST increased: 1 n
  dose reductions attributed to PPE syndrome: 2 n
  dose reductions attributed to decreased appetite: 1 n
  dose reductions attributed to paronychia: 2 n
  dose reductions attributed to stomatitis: 1 n
  drug‐related deaths: no drug‐related deaths
  severity of all hyperphosphatemia events: grade 1 or 2
140 mg once daily, N = 16
  ALT increased, TEAEs All grades: 3 (18.8) n (%)
  ALT increased, TEAEs Grade ≥3: 1 (6.3) n (%)
  ALT increased, TRAEs All grades: 2 (12.5) n (%)
  ALT increased, TRAEs Grade ≥3: 0 (0.0) n (%)
  AST increased, TEAEs All grades: 4 (25.0) n (%)
  AST increased, TEAEs Grade ≥3: 2 (12.5) n (%)
  AST increased, TRAEs All grades: 3 (18.8) n (%)
  AST increased, TRAEs Grade ≥3: 1 (6.3) n (%)
  Abdominal distension, TEAEs All grades: 4 (25.0) n (%)
  Abdominal distension, TEAEs Grade ≥3: 1 (6.3) n (%)
  Abdominal distension, TRAEs All grades: 0 (0.0) n (%)
  Abdominal distension, TRAEs Grade ≥3: 0 (0.0) n (%)
  Abdominal pain, TEAEs All grades: 2 (12.5) n (%)
  Abdominal pain, TEAEs Grade ≥3: 0 (0.0) n (%)
  Abdominal pain, TRAEs All grades: 0 (0.0) n (%)
  Abdominal pain, TRAEs Grade ≥3: 0 (0.0) n (%)
  All AEs, TEAEs All grades: 16 (100.0) n (%)
  All AEs, TEAEs Grade ≥3: 11 (68.8) n (%)
  All AEs, TRAEs All grades: 16 (100.0) n (%)
  All AEs, TRAEs Grade ≥3: 2 (12.5) n (%)
  Anemia, TEAEs All grades: 4 (25.0) n (%)
  Anemia, TEAEs Grade ≥3: 2 (12.5) n (%)
  Anemia, TRAEs All grades: 1 (6.3) n (%)
  Anemia, TRAEs Grade ≥3: 0 (0.0) n (%)
  Blood alkaline phosphatase increased, TEAEs All grades: 3 (18.8) n (%)
  Blood alkaline phosphatase increased, TEAEs Grade ≥3: 2 (12.5) n (%)
  Blood alkaline phosphatase increased, TRAEs All grades: 1 (6.3) n (%)
  Blood alkaline phosphatase increased, TRAEs Grade ≥3: 0 (0.0) n (%)
  Blood creatinine increased, TEAEs All grades: 5 (31.3) n (%)
  Blood creatinine increased, TEAEs Grade ≥3: 0 (0.0) n (%)
  Blood creatinine increased, TRAEs All grades: 3 (18.8) n (%)
  Blood creatinine increased, TRAEs Grade ≥3: 0 (0.0) n (%)
  Cancer pain, TEAEs All grades: 2 (12.5) n (%)
  Cancer pain, TEAEs Grade ≥3: 0 (0.0) n (%)
  Cancer pain, TRAEs All grades: 0 (0.0) n (%)
  Cancer pain, TRAEs Grade ≥3: 0 (0.0) n (%)
  Constipation, TEAEs All grades: 3 (18.8) n (%)
  Constipation, TEAEs Grade ≥3: 0 (0.0) n (%)
  Constipation, TRAEs All grades: 1 (6.3) n (%)
  Constipation, TRAEs Grade ≥3: 0 (0.0) n (%)
  Decreased appetite, TEAEs All grades: 7 (43.8) n (%)
  Decreased appetite, TEAEs Grade ≥3: 2 (12.5) n (%)
  Decreased appetite, TRAEs All grades: 2 (12.5) n (%)
  Decreased appetite, TRAEs Grade ≥3: 0 (0.0) n (%)
  Diarrhea, TEAEs All grades: 6 (37.5) n (%)
  Diarrhea, TEAEs Grade ≥3: 1 (6.3) n (%)
  Diarrhea, TRAEs All grades: 4 (25.0) n (%)
  Diarrhea, TRAEs Grade ≥3: 0 (0.0) n (%)
  Dry eye, TEAEs All grades: 2 (12.5) n (%)
  Dry eye, TEAEs Grade ≥3: 0 (0.0) n (%)
  Dry eye, TRAEs All grades: 1 (6.3) n (%)
  Dry eye, TRAEs Grade ≥3: 0 (0.0) n (%)
  Dry mouth, TEAEs All grades: 3 (18.8) n (%)
  Dry mouth, TEAEs Grade ≥3: 0 (0.0) n (%)
  Dry mouth, TRAEs All grades: 3 (18.8) n (%)
  Dry mouth, TRAEs Grade ≥3: 0 (0.0) n (%)
  Dry skin, TEAEs All grades: 3 (18.8) n (%)
  Dry skin, TEAEs Grade ≥3: 0 (0.0) n (%)
  Dry skin, TRAEs All grades: 3 (18.8) n (%)
  Dry skin, TRAEs Grade ≥3: 0 (0.0) n (%)
  Dysgeusia, TEAEs All grades: 6 (37.5) n (%)
  Dysgeusia, TEAEs Grade ≥3: 0 (0.0) n (%)
  Dysgeusia, TRAEs All grades: 5 (31.3) n (%)
  Dysgeusia, TRAEs Grade ≥3: 0 (0.0) n (%)
  Epistaxis, TEAEs All grades: 2 (12.5) n (%)
  Epistaxis, TEAEs Grade ≥3: 0 (0.0) n (%)
  Epistaxis, TRAEs All grades: 1 (6.3) n (%)
  Epistaxis, TRAEs Grade ≥3: 0 (0.0) n (%)
  Headache, TEAEs All grades: 2 (12.5) n (%)
  Headache, TEAEs Grade ≥3: 1 (6.3) n (%)
  Headache, TRAEs All grades: 0 (0.0) n (%)
  Headache, TRAEs Grade ≥3: 0 (0.0) n (%)
  Hyperphosphatemia, TEAEs All grades: 16 (100.0) n (%)
  Hyperphosphatemia, TEAEs Grade ≥3: 0 (0.0) n (%)
  Hyperphosphatemia, TRAEs All grades: 16 (100.0) n (%)
  Hyperphosphatemia, TRAEs Grade ≥3: 0 (0.0) n (%)
  Hypoalbuminemia, TEAEs All grades: 3 (18.8) n (%)
  Hypoalbuminemia, TEAEs Grade ≥3: 1 (6.3) n (%)
  Hypoalbuminemia, TRAEs All grades: 0 (0.0) n (%)
  Hypoalbuminemia, TRAEs Grade ≥3: 0 (0.0) n (%)
  Insomnia, TEAEs All grades: 2 (12.5) n (%)
  Insomnia, TEAEs Grade ≥3: 0 (0.0) n (%)
  Insomnia, TRAEs All grades: 0 (0.0) n (%)
  Insomnia, TRAEs Grade ≥3: 0 (0.0) n (%)
  Lipase increased, TEAEs All grades: 2 (12.5) n (%)
  Lipase increased, TEAEs Grade ≥3: 2 (12.5) n (%)
  Lipase increased, TRAEs All grades: 1 (6.3) n (%)
  Lipase increased, TRAEs Grade ≥3: 1 (6.3) n (%)
  Malaise, TEAEs All grades: 2 (12.5) n (%)
  Malaise, TEAEs Grade ≥3: 0 (0.0) n (%)
  Malaise, TRAEs All grades: 2 (12.5) n (%)
  Malaise, TRAEs Grade ≥3: 0 (0.0) n (%)
  Nail disorder, TEAEs All grades: 2 (12.5) n (%)
  Nail disorder, TEAEs Grade ≥3: 0 (0.0) n (%)
  Nail disorder, TRAEs All grades: 2 (12.5) n (%)
  Nail disorder, TRAEs Grade ≥3: 0 (0.0) n (%)
  Nasopharyngitis, TEAEs All grades: 2 (12.5) n (%)
  Nasopharyngitis, TEAEs Grade ≥3: 0 (0.0) n (%)
  Nasopharyngitis, TRAEs All grades: 0 (0.0) n (%)
  Nasopharyngitis, TRAEs Grade ≥3: 0 (0.0) n (%)
  PPE syndrome, TEAEs All grades: 10 (62.5) n (%)
  PPE syndrome, TEAEs Grade ≥3: 0 (0.0) n (%)
  PPE syndrome, TRAEs All grades: 10 (62.5) n (%)
  PPE syndrome, TRAEs Grade ≥3: 0 (0.0) n (%)
  Paronychia, TEAEs All grades: 9 (56.3) n (%)
  Paronychia, TEAEs Grade ≥3: 0 (0.0) n (%)
  Paronychia, TRAEs All grades: 8 (50.0) n (%)
  Paronychia, TRAEs Grade ≥3: 0 (0.0) n (%)
  Platelet count decreased, TEAEs All grades: 2 (12.5) n (%)
  Platelet count decreased, TEAEs Grade ≥3: 0 (0.0) n (%)
  Platelet count decreased, TRAEs All grades: 1 (6.3) n (%)
  Platelet count decreased, TRAEs Grade ≥3: 0 (0.0) n (%)
  Pruritus, TEAEs All grades: 2 (12.5) n (%)
  Pruritus, TEAEs Grade ≥3: 0 (0.0) n (%)
  Pruritus, TRAEs All grades: 2 (12.5) n (%)
  Pruritus, TRAEs Grade ≥3: 0 (0.0) n (%)
  Pyrexia, TEAEs All grades: 3 (18.8) n (%)
  Pyrexia, TEAEs Grade ≥3: 0 (0.0) n (%)
  Pyrexia, TRAEs All grades: 1 (6.3) n (%)
  Pyrexia, TRAEs Grade ≥3: 0 (0.0) n (%)
  Stomatitis, TEAEs All grades: 6 (37.5) n (%)
  Stomatitis, TEAEs Grade ≥3: 1 (6.3) n (%)
  Stomatitis, TRAEs All grades: 6 (37.5) n (%)
  Stomatitis, TRAEs Grade ≥3: 0 (0.0) n (%)
  Tumor pain, TEAEs All grades: 2 (12.5) n (%)
  Tumor pain, TEAEs Grade ≥3: 1 (6.3) n (%)
  Tumor pain, TRAEs All grades: 0 (0.0) n (%)
  Tumor pain, TRAEs Grade ≥3: 0 (0.0) n (%)
  Tumor‐associated fever, TEAEs All grades: 2 (12.5) n (%)
  Tumor‐associated fever, TEAEs Grade ≥3: 0 (0.0) n (%)
  Tumor‐associated fever, TRAEs All grades: 0 (0.0) n (%)
  Tumor‐associated fever, TRAEs Grade ≥3: 0 (0.0) n (%)
  Vomiting, TEAEs All grades: 2 (12.5) n (%)
  Vomiting, TEAEs Grade ≥3: 1 (6.3) n (%)
  Vomiting, TRAEs All grades: 0 (0.0) n (%)
  Vomiting, TRAEs Grade ≥3: 0 (0.0) n (%)
  Weight decreased, TEAEs All grades: 2 (12.5) n (%)
  Weight decreased, TEAEs Grade ≥3: 0 (0.0) n (%)
  Weight decreased, TRAEs All grades: 0 (0.0) n (%)
  Weight decreased, TRAEs Grade ≥3: 0 (0.0) n (%)
[1]
  any‐grade TEAE: ALT increased: 18.8%
  any‐grade TEAE: AST increased: 25.0%
  any‐grade TEAE: abdominal distension: 25.0%
  any‐grade TEAE: anemia: 25.0%
  any‐grade TEAE: blood alkaline phosphatase increased: 18.8%
  any‐grade TEAE: blood creatinine increased: 31.3%
  any‐grade TEAE: constipation: 18.8%
  any‐grade TEAE: decreased appetite: 43.8%
  any‐grade TEAE: diarrhea: 37.5%
  any‐grade TEAE: dry mouth: 18.8%
  any‐grade TEAE: dry skin: 18.8%
  any‐grade TEAE: dysgeusia: 37.5%
  any‐grade TEAE: hyperphosphatemia: 100%
  any‐grade TEAE: hypoalbuminemia: 18.8%
  any‐grade TEAE: palmar‐plantar erythrodysesthesia (PPE) syndrome: 62.5%
  any‐grade TEAE: paronychia: 56.3%
  any‐grade TEAE: pyrexia: 18.8%
  any‐grade TEAE: stomatitis: 37.5%
16 patients, 140 mg once daily
  any‐grade treatment‐related TEAE: ALT increased: 12.5%
  any‐grade treatment‐related TEAE: AST increased: 18.8%
  any‐grade treatment‐related TEAE: PPE syndrome: 62.5%
  any‐grade treatment‐related TEAE: blood creatinine increased: 18.8%
  any‐grade treatment‐related TEAE: decreased appetite: 12.5%
  any‐grade treatment‐related TEAE: diarrhea: 25.0%
  any‐grade treatment‐related TEAE: dry mouth: 18.8%
  any‐grade treatment‐related TEAE: dry skin: 18.8%
  any‐grade treatment‐related TEAE: dysgeusia: 31.3%
  any‐grade treatment‐related TEAE: hyperphosphatemia: 100%
  any‐grade treatment‐related TEAE: malaise: 12.5%
  any‐grade treatment‐related TEAE: nail disorder: 12.5%
  any‐grade treatment‐related TEAE: paronychia: 50.0%
  any‐grade treatment‐related TEAE: pruritus: 12.5%
  any‐grade treatment‐related TEAE: stomatitis: 37.5%
  grade ≥3 treatment‐related TEAE: AST increased: 1 n
  grade ≥3 treatment‐related TEAE: lipase increased: 1 n
  grade ≥3 treatment‐related TEAE: retinopathy: 1 n
  patients who experienced a TEAE of grade ≥3: 68.8%
Five of 16 patients, 140 mg once daily
  patients with treatment‐emergent SAEs: 31.3%
In five patients, 140 mg once daily
  total treatment‐emergent serious AEs (SAEs) reported: 11
N = 2
  eye disorder: dry eye: 12.5%
Once daily
  recommended dose for subsequent phase II evaluation: 140 mg
One patient (cholecystitis acute and septic shock, not related)
  patients with TEAEs leading to discontinuation of the study drug: 6.3%
Six of 16 patients
  patients with dose reductions due to treatment‐related TEAEs: 37.5%
Thirteen events in seven patients
  patients with eye disorder events: 43.8%
Two of 16 patients, 140 mg once daily
  patients who experienced grade ≥3 treatment‐related TEAEs: 12.5%
